Values of other authors as cited in US9198881B2, “Equine nutritional supplement” (priority 2011, dated 2015).
Read-outs that look alike come from different tables or passages of the source.

Tested on: nitric oxide
Details: humans, 8 weeks of supervised aerobic training, FIGS. 4 and 5

Substance: Glycine Propionyl L-Carnitine Hydrochloride
- nitric oxide levels (1.5 grams per day): statistically significant enhancement
- nitric oxide levels (4.5 grams per day): statistically significant enhancement
